Measured values from article PMC10584170, “Machine learning-based phenotypic imaging to characterise the targetable biology of Plasmodium falciparum male gametocytes for the development of transmission-blocking antimalarials” (PLOS Pathogens, 2023).
Read-outs that look alike come from different tables or passages of the source.

Key:
[1] = system: P. falciparum male gametocytes; test: P. falciparum Dual Gamete Formation Assay (PfDGFA), male readout (exflagellation); format: cell-based, Plasmodium falciparum NF54; conditions: for Selectivity Ratio M: HepG2 Tox50 versus male IC50; for Average inhibition male (%) / % inhibition male (individual replicates) R1 / % inhibition male (individual replicates) R3 / % inhibition male (individual replicates) R4 / inhibition at 2 µM: 24h preincubation with gametocytes; for HitlevelM: number of replicates with >50% inhibition in the male readout
In short: (§1)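 Day-14 NF54 gametocytes were incubated with compound for 24 h at 37°C under 1% O2/3% CO2/96% N2. Gametogenesis was triggered with ookinete medium (0.1 μM xanthurenic acid) plus Cy3-anti-Pfs25, and exflagellation was imaged by brightfield after cooling to 4°C then 28°C. Females were imaged by Pfs25 fluorescence 24 h later at 28°C.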

HepG2 cells = test: HepG2 cytotoxicity counter-screen; conditions: for Tox50: cytotoxic activity against HepG2 cells; for Mean TOX: mean of the HepG2 TOX50 values
[2] = system: P. falciparum female gametocytes; test: P. falciparum Dual Gamete Formation Assay (PfDGFA), female readout (Pfs25-positive female gametes); format: cell-based, Plasmodium falciparum NF54; conditions: for Selectivity ratio F: HepG2 Tox50 versus female IC50; for Average inhibition female (%) / % inhibition female (individual replicates) R1 / % inhibition female (individual replicates) R3 / % inhibition female (individual replicates) R4 / inhibition at 2 µM: 24h preincubation with gametocytes; for HitlevelF: number of replicates with >50% inhibition in the female readout
In short: as §1

[3] = PfDGFA at 2µM, average of replicates
[4] = PfDGFA, 24 h incubation with gametocytes before induction, exflagellation readout, read-out: Male IC50
[5] = PfDGFA, 24 h incubation with gametocytes before induction, female gamete readout, read-out: Female IC50
[6] = Plasmodium falciparum, 2µM, average of replicates, read-out: Average inhibition male (%)
[7] = Plasmodium falciparum, 2µM, replicate R1, read-out: % inhibition male (individual replicates) R1
[8] = Plasmodium falciparum, 2µM, replicate R2, read-out: % inhibition male (individual replicates) R2
[9] = Plasmodium falciparum, 2µM, replicate R3, read-out: % inhibition male (individual replicates) R3
[10] = Plasmodium falciparum, 2µM, replicate R4, read-out: % inhibition male (individual replicates) R4
[11] = Plasmodium falciparum, PfDGFA, 24 h incubation with gametocytes before induction, exflagellation readout, read-out: Male IC50
[12] = Plasmodium falciparum, 2µM, average of replicates, read-out: Average inhibition female (%)
[13] = Plasmodium falciparum, 2µM, replicate R1, read-out: % inhibition female (individual replicates) R1
[14] = Plasmodium falciparum, 2µM, replicate R2, read-out: % inhibition female (individual replicates) R2
[15] = Plasmodium falciparum, 2µM, replicate R3, read-out: % inhibition female (individual replicates) R3
[16] = Plasmodium falciparum, 2µM, replicate R4, read-out: % inhibition female (individual replicates) R4
[17] = Plasmodium falciparum, PfDGFA, 24 h incubation with gametocytes before induction, female gamete readout, read-out: Female IC50
[18] = this study, read-out: Pf DGFA IC50 MALE
[19] = Plasmodium falciparum, PfDGFA at 2µM, average of replicates, read-out: Average inhibition male (%)
[20] = Plasmodium falciparum, PfDGFA at 2µM, replicate R1, read-out: % inhibition male (individual replicates) R1
[21] = Plasmodium falciparum, PfDGFA at 2µM, replicate R2, read-out: % inhibition male (individual replicates) R2
[22] = Plasmodium falciparum, PfDGFA at 2µM, replicate R3, read-out: % inhibition male (individual replicates) R3
[23] = Plasmodium falciparum, PfDGFA at 2µM, replicate R4, read-out: % inhibition male (individual replicates) R4
[24] = Plasmodium falciparum, PfDGFA at 2µM, average of replicates, read-out: Average inhibition female (%)
[25] = Plasmodium falciparum, PfDGFA at 2µM, replicate R1, read-out: % inhibition female (individual replicates) R1
[26] = Plasmodium falciparum, PfDGFA at 2µM, replicate R2, read-out: % inhibition female (individual replicates) R2
[27] = Plasmodium falciparum, PfDGFA at 2µM, replicate R3, read-out: % inhibition female (individual replicates) R3
[28] = Plasmodium falciparum, PfDGFA at 2µM, replicate R4, read-out: % inhibition female (individual replicates) R4

Row | Compound | Selectivity Ratio M [1] | HitlevelM ([1]; 2µM) | Tox50 (HepG2 cells) | Selectivity ratio F [2] | HitlevelF ([2]; 2µM) | IC50 [1, 11] | IC50 [2, 17] | inhibition at 2 µM [1, 19] | inhibition at 2 µM [1, 20] | inhibition at 2 µM [1, 21] | inhibition at 2 µM [1, 22] | inhibition at 2 µM [1, 23] | inhibition at 2 µM [2, 24] | inhibition at 2 µM [2, 25] | inhibition at 2 µM [2, 26] | inhibition at 2 µM [2, 27] | inhibition at 2 µM [2, 28] | also measured
1 | CN(CCCNCc1cccc2ccccc12)CCCNCc1cccc2ccccc12.Cl [TCMDC-137905] | 6.46 | 4 | 5.94 µM | 4.08 | 1 |  |  |  |  |  |  |  |  |  |  |  |  | Average inhibition male (%) [1, 3]: 87.5%; % inhibition male (individual replicates) R1 ([1]; PfDGFA at 2µM, replicate R1): 87.4%; % inhibition male (individual replicates) R3 ([1]; PfDGFA at 2µM, replicate R3): 74.8%; % inhibition male (individual replicates) R4 ([1]; PfDGFA at 2µM, replicate R4): 93.6%; IC50 [1, 4]: 920 nM; Average inhibition female (%) [2, 3]: 42.5%; % inhibition female (individual replicates) R1 ([2]; PfDGFA at 2µM, replicate R1): 35.1%; % inhibition female (individual replicates) R3 ([2]; PfDGFA at 2µM, replicate R3): 30.8%; % inhibition female (individual replicates) R4 ([2]; PfDGFA at 2µM, replicate R4): 35.6%; IC50 [2, 5]: 1460 nM
2 | C=CCNc1cc(-c2ccccn2)nc(-c2ccccn2)n1 [TCMDC-123787] | 13.76 |  | 12.58 µM | 2.57 |  | 910 nM | 4890 nM |  |  |  |  |  |  |  |  |  |  | inhibition at 2 µM [1, 6]: 94.8%; inhibition at 2 µM [1, 7]: 93.1%; inhibition at 2 µM [1, 8]: 94.1%; inhibition at 2 µM [1, 9]: 97.8%; inhibition at 2 µM [1, 10]: 94.1%; inhibition at 2 µM [2, 12]: 33.1%; inhibition at 2 µM [2, 13]: 29.8%; inhibition at 2 µM [2, 14]: 30%; inhibition at 2 µM [2, 15]: 14.9%; inhibition at 2 µM [2, 16]: 57.6%
3 | CS(=O)(=O)O.FC(F)(F)COc1c(CNCCCCCCNCc2ccc3ccccc3c2OCC(F)(F)F)ccc2ccccc12 [TCMDC-137833] | 1.9 | 3 | 3.32 µM | 0.51 | 0 |  |  |  |  |  |  |  |  |  |  |  |  | Average inhibition male (%) [1, 3]: 69.2%; % inhibition male (individual replicates) R1 ([1]; PfDGFA at 2µM, replicate R1): 70.5%; % inhibition male (individual replicates) R3 ([1]; PfDGFA at 2µM, replicate R3): 47.4%; % inhibition male (individual replicates) R4 ([1]; PfDGFA at 2µM, replicate R4): 77.6%; IC50 [1, 4]: 1750 nM; Average inhibition female (%) [2, 3]: 29.5%; % inhibition female (individual replicates) R1 ([2]; PfDGFA at 2µM, replicate R1): 27.4%; % inhibition female (individual replicates) R3 ([2]; PfDGFA at 2µM, replicate R3): 10.4%; % inhibition female (individual replicates) R4 ([2]; PfDGFA at 2µM, replicate R4): 40.2%; IC50 [2, 5]: 6570 nM
4 | C=CCNc1cc(-c2ccccn2)nc(-c2ccccn2)n1 [TC01] |  |  |  |  |  |  |  |  |  |  |  |  |  |  |  |  |  | Cytotox ratio Pf Male [1]: 13.8; IC50 [1, 18]: 910 nM; Mean TOX (HepG2 cells): 12.58 µM; Cytotox ratio Pf Female [2]: 2.6; IC50 ([2]; this study, read-out: Pf DGFA IC50 FEM): 4890 nM
5 | COc1cc2c(cc1S(=O)(=O)c1ccc(COc3ccc(C(F)(F)F)cc3)cc1)CNCC2.Cl [TCMDC-134479] | 11.99 | 4 | 16.6 µM | 1.66 | 0 | 1380 nM | > 10000 nM | 89.2% | 89.3% | 88% | 76% | 104% | 10% | 16.9% | 9.1% | -0.43% | 14.6% | 
6 | Cc1ccc(C)c(S(=O)(=O)NCC2CCN(Cc3ccc(O)cc3)CC2)c1.O=C(O)C(F)(F)F [TC53] |  |  |  |  |  |  |  |  |  |  |  |  |  |  |  |  |  | Cytotox ratio Pf Male [1]: 54.7; IC50 [1, 18]: 1490 nM; Mean TOX (HepG2 cells): 81.55 µM; Cytotox ratio Pf Female [2]: 8.2
7 | Cc1cccc(Nc2nc(NCCCCN)nc3cc[nH]c(=O)c23)c1.O=C(O)C(F)(F)F [TCMDC-134946] | 75.16 | 4 | 28.66 µM | 2.87 | 0 | 380 nM | > 10000 nM | 89.5% | 94.1% | 93.5% | 87.3% | 82.9% | 9% | 6.6% | 23% | 13.1% | -6.7% | 
8 | FC(F)(F)c1ccc2[nH]c(-c3ccc(-c4cccc(CNCCN5CCNCC5)c4)cc3)nc2c1.O=C(O)C(F)(F)F [TCMDC-132864] | 12.52 | 4 | 20.55 µM | 3.99 | 0 | 1640 nM | 5150 nM | 82.4% | 79.2% | 89.7% | 65.9% | 94.9% | 20.5% | 25.8% | 24.6% | -15.8% | 47.4% | 
9 | COc1cc(-c2nc(C(C)(C)CN)[nH]c2-c2ccncc2)ccc1Br.Cl [TCMDC-140674] | 24.67 | 3 | 43.66 µM | 27.17 | 2 | 1770 nM | 1610 nM | 80.4% | 38.8% | 100% | 83.7% | 98.9% | 51.9% | 32.2% | 85.8% | 16.6% | 72.9% | 
10 | CN(C)CCCn1c(N)c(-c2nc3ccccc3[nH]2)c2nc(C#N)c(C#N)nc21 [TCMDC-123729] | 16 |  | 8.13 µM | 5.55 |  | 510 nM | 1470 nM |  |  |  |  |  |  |  |  |  |  | inhibition at 2 µM [1, 6]: 100%; inhibition at 2 µM [1, 7]: 96.8%; inhibition at 2 µM [1, 8]: 102%; inhibition at 2 µM [1, 9]: 97.3%; inhibition at 2 µM [1, 10]: 104%; inhibition at 2 µM [2, 12]: 94.8%; inhibition at 2 µM [2, 13]: 95.1%; inhibition at 2 µM [2, 14]: 89.6%; inhibition at 2 µM [2, 15]: 99.5%; inhibition at 2 µM [2, 16]: 95.1%
11 | CCn1c(-c2nonc2N)nc2c(-c3ccccc3)ncc(OCCCNCCCN3CCOCC3)c21.O=C(O)C(F)(F)F [TCMDC-135858] | 11.73 | 3 | 16.12 µM | 2.48 | 0 | 1370 nM | 6490 nM | 85.1% | 80.4% | 88.6% |  | 86.5% | 23% | 22.7% | 28.7% | 18.7% | 21.9% | 
12 | COc1cc(Nc2nccc(-c3c(-c4cccc(NC(=O)c5c(F)cccc5F)c4)nn4ncccc34)n2)cc(OC)c1OC [TCMDC-135684] | 4.28 |  | 1.17 µM | 0.12 |  |  |  |  |  |  |  |  |  |  |  |  |  | Average inhibition male (%) ([1]; 2µM, average of replicates): 97.0%; % inhibition male (individual replicates) R1 ([1]; 2µM, replicate R1): 96.5%; % inhibition male (individual replicates) R3 ([1]; 2µM, replicate R3): 98.0%; % inhibition male (individual replicates) R4 ([1]; 2µM, replicate R4): 98.2%; IC50 [1, 4]: 270 nM; Average inhibition female (%) ([2]; 2µM, average of replicates): 9.6%; % inhibition female (individual replicates) R1 ([2]; 2µM, replicate R1): 8.4%; % inhibition female (individual replicates) R3 ([2]; 2µM, replicate R3): 15.7%; % inhibition female (individual replicates) R4 ([2]; 2µM, replicate R4): 19.8%
13 | COc1ccc(-c2cnc(N)c(-c3ccc(C(N)=O)cc3)c2)cc1OC [TCMDC-133349] | 54.05 | 3 | 15.14 µM | 1.51 | 0 | 280 nM | > 10000 nM | 71.3% | 80.4% | 82.4% |  | 51.1% | 9.1% | 0.18% | 11.3% | 7.9% | 17.1% | 
